Laboratory results published in US4668705A, “Sebosuppressive preparations containing alkoxyaryl alkanols” (Henkel Kommanditgesellschaft auf Aktien, priority 1983, dated 1987).

Columns and labels:
[1] = tested on: seborrhea of the scalp; conditions: prior art, cited from earlier work; for antiseborrheic effect of known additives: additives to cosmetic preparations
[2] = tested on: brown skin surface lipid of the rats; experiment: Antiseborrheic effect in animal test: browning of the shaved back of rats (skin surface lipid), visual assessment under double blind conditions; type: in vivo, male Wistar rats; set-up: key to Evaluation method 2 (points difference between righthand and lefthand side) / Evaluation method 3 (difference in intensity of brown shades vs untreated control animals): ++: very large (≥99.9% probability); +: significant (≥95% probability); 0: minimal (95% probability); conditions: for reduction of sebum (threshold statement in text): at the concentration tested in the Table
Text: The antiseborrheic effect was closely studied using the animal tests described in the following: The test animals were male Wistar rats having a body weight of 220 to 230 g at the beginning of the tests. The degree of browning on the shaved back of the rats was visually assessed. Browning is produced by the brown skin surface lipid of the rats. This test is based on the observation that young male and female rats washed with surfactant solution or with a lipid solvent and also male rats systematically treated with oestrogen only have the normal light, pink-colored skin after shaving. At the same time, only comparatively very small quantities of lipids can be extracted from the shaved hairs. In order to assess effectiveness, the test substances in solution in alcohol were each brushed onto half the back of 6 rats. The other half was only treated with the solvent minus active substances. Over the test period of 14 days, the test substances were applied once daily for a total of 9 days. A group of 6 rats which remained completely untreated was used for further control. At the end of the test, the animals were shaved on their back and sides and were visually assessed independently by an examination panel of 6 people under double blind conditions. The first criterion evaluated was whether the majority of examiners correctly recognized the treated side, differentiation being carried out as follows: The second criterion evaluated was the difference between the righthand side and the lefthand side, each examiner having to award 1 point per animal on the following basis: darker side--1 point lighter side--0 point and both sides the same--0.5 point Significant differences between the untreated and treated sides in the second method of evaluation indicate the local effectiveness of a substance. The third criterion evaluated was the difference in intensity between the shades of brown using the following scale: 3 points--dark brown 2 points--medium brown 1 point--light brown 0 points--no browning In the third method of evaluation, total point differences are compared between the untreated control animals and the treated and untreated sides of the test animals, significant differences between the control animals and the treated side of the test animals again indicating the effectiveness of a substance. There is generally also a distinct difference between the untreated and treated sides of the same test animals. However, this difference is not always as clear as that between the control animals and the treated sides, for which there may be various reasons, such as mechanical transfer of substance from one side to the other or solvent influence. The following scheme was used for differentiating the effects according to evaluation methods 2 and 3: The sebum reduction is calculated from the points difference by working out the quotient between the points difference ΔP and the number of points for the control group Pk, and expressing the value obtained in percent. Sebum reduction=(ΔP/Pk ·100 [%] […]

[3] = Conc. 1.0%, topical, once daily, 9 applications in 14 days
[4] = Rattus norvegicus, 336 h, Conc. 1.0%, topical, once daily, 9 applications in 14 days, ΔP/Pk × 100, read-out: Sebum reduction
[5] = Conc. 0.2%, topical, once daily, 9 applications in 14 days
[6] = Rattus norvegicus, 336 h, Conc. 0.2%, topical, once daily, 9 applications in 14 days, ΔP/Pk × 100, read-out: Sebum reduction
[7] = Conc. 0.5%, topical, once daily, 9 applications in 14 days
[8] = Rattus norvegicus, 336 h, Conc. 0.5%, topical, once daily, 9 applications in 14 days, ΔP/Pk × 100, read-out: Sebum reduction
[9] = Conc. 0.1%, topical, once daily, 9 applications in 14 days

3,7,11-trimethyl-2,6,10-dodecatrien-1-ol ethyl ether and/or acetate
antiseborrheic effect of known additives [1]: only a very weak antiseborrheic effect

OCc1ccccc1 [Benzyl alcohol, reference compound]
Evaluation method 1 (percentage of examiners noticing an effect, treated side recognized) [2, 3]: 0 (≤50%) | Evaluation method 2 (points difference between righthand and lefthand side) [2, 3]: 0 | Evaluation method 3 (difference in intensity of brown shades vs untreated control animals) [2, 3]: 0 | inhibition in vivo at 1 % [2, 4]: 0%

S1SSSSSSS1 [sulfur]
antiseborrheic effect of known additives [1]: without giving really satisfactory results in regard to efficacy | side effects of known additives ([1]; after prolonged use): frequently produce side effects after prolonged use

CCCCCCOc1ccc(CO)cc1 [E, 4-hexyloxybenzyl alcohol]
Evaluation method 1 (percentage of examiners noticing an effect, treated side recognized) [2, 5]: ++ (100%) | Evaluation method 2 (points difference between righthand and lefthand side) [2, 5]: ++ (very large (≥99.9% probability)) | Evaluation method 3 (difference in intensity of brown shades vs untreated control animals) [2, 5]: ++ (very large (≥99.9% probability)) | inhibition in vivo at 0.2 % [2, 6]: 92%

CCCCCCCCCCOc1ccc(CCO)cc1 [C, 2-(4-decyloxyphenyl)-ethanol]
Evaluation method 1 (percentage of examiners noticing an effect, treated side recognized) [2, 3]: ++ (100%) | Evaluation method 2 (points difference between righthand and lefthand side) [2, 3]: ++ (very large (≥99.9% probability)) | Evaluation method 3 (difference in intensity of brown shades vs untreated control animals) [2, 3]: ++ (very large (≥99.9% probability)) | inhibition in vivo at 1 % [2, 4]: 56% | reduction of sebum (threshold statement in text) [2]: at least 50%

CCCCCCCCCCCCCCOc1ccc(CO)cc1 [A, 4-tetradecyloxybenzyl alcohol]
Evaluation method 1 (percentage of examiners noticing an effect, treated side recognized) [2, 7]: ++ (100%) | Evaluation method 2 (points difference between righthand and lefthand side) [2, 7]: ++ (very large (≥99.9% probability)) | Evaluation method 3 (difference in intensity of brown shades vs untreated control animals) [2, 7]: ++ (very large (≥99.9% probability)) | inhibition in vivo at 0.5 % [2, 8]: 97%

CCCCCCCCCCOc1ccccc1CO [G, 2-decyloxybenzyl alcohol]
Evaluation method 1 (percentage of examiners noticing an effect, treated side recognized) [2, 7]: ++ (100%) | Evaluation method 2 (points difference between righthand and lefthand side) [2, 7]: ++ (very large (≥99.9% probability)) | Evaluation method 3 (difference in intensity of brown shades vs untreated control animals) [2, 7]: ++ (very large (≥99.9% probability)) | inhibition in vivo at 0.5 % [2, 8]: 20%

mercury
antiseborrheic effect of known additives [1]: without giving really satisfactory results in regard to efficacy

CCCCCCCCCCCCOc1ccc(CO)cc1 [D, 4-dodecyloxybenzyl alcohol]
Evaluation method 1 (percentage of examiners noticing an effect, treated side recognized) [2, 9]: ++ (100%) | Evaluation method 2 (points difference between righthand and lefthand side) [2, 9]: ++ (very large (≥99.9% probability)) | Evaluation method 3 (difference in intensity of brown shades vs untreated control animals) [2, 9]: ++ (very large (≥99.9% probability)) | inhibition in vivo at 0.1 % ([2]; Rattus norvegicus, 336 h, Conc. 0.1%, topical, once daily, 9 applications in 14 days, ΔP/Pk × 100, read-out: Sebum reduction): 88%

CCCCCCCCOc1ccc(CO)cc1 [F, 4-octyloxybenzyl alcohol]
Evaluation method 1 (percentage of examiners noticing an effect, treated side recognized) [2, 5]: ++ (100%) | Evaluation method 2 (points difference between righthand and lefthand side) [2, 5]: ++ (very large (≥99.9% probability)) | Evaluation method 3 (difference in intensity of brown shades vs untreated control animals) [2, 5]: ++ (very large (≥99.9% probability)) | inhibition in vivo at 0.2 % [2, 6]: 95%

CCCCCCCCCCCCCCOc1cccc(CO)c1 [I, 3-tetradecyloxybenzyl alcohol]
Evaluation method 1 (percentage of examiners noticing an effect, treated side recognized) [2, 7]: ++ (100%) | Evaluation method 2 (points difference between righthand and lefthand side) [2, 7]: ++ (very large (≥99.9% probability)) | Evaluation method 3 (difference in intensity of brown shades vs untreated control animals) [2, 7]: ++ (very large (≥99.9% probability)) | inhibition in vivo at 0.5 % [2, 8]: 22%

CCCCCCCCCCCCOc1cccc(CO)c1 [H, 3-dodecyloxybenzyl alcohol]
Evaluation method 1 (percentage of examiners noticing an effect, treated side recognized) [2, 7]: ++ (100%) | Evaluation method 2 (points difference between righthand and lefthand side) [2, 7]: ++ (very large (≥99.9% probability)) | Evaluation method 3 (difference in intensity of brown shades vs untreated control animals) [2, 7]: ++ (very large (≥99.9% probability)) | inhibition in vivo at 0.5 % [2, 8]: 69% | reduction of sebum (threshold statement in text) [2]: at least 50%

CCCCCCCCCCOc1ccc(CO)cc1 [B, 4-decyloxybenzyl alcohol]
Evaluation method 1 (percentage of examiners noticing an effect, treated side recognized) [2, 5]: ++ (100%) | Evaluation method 2 (points difference between righthand and lefthand side) [2, 5]: ++ (very large (≥99.9% probability)) | Evaluation method 3 (difference in intensity of brown shades vs untreated control animals) [2, 5]: ++ (very large (≥99.9% probability)) | inhibition in vivo at 0.2 % [2, 6]: 95%

CCCCCCCCCCOc1cccc(CO)c1 [K, 3-decyloxybenzyl alcohol]
Evaluation method 1 (percentage of examiners noticing an effect, treated side recognized) [2, 7]: ++ (100%) | Evaluation method 2 (points difference between righthand and lefthand side) [2, 7]: ++ (very large (≥99.9% probability)) | Evaluation method 3 (difference in intensity of brown shades vs untreated control animals) [2, 7]: ++ (very large (≥99.9% probability)) | inhibition in vivo at 0.5 % [2, 8]: 53% | reduction of sebum (threshold statement in text) [2]: at least 50%
